In US20250073255A1, “USE OF FA-TYPE LIPID COMPOUNDS IN PREPARATION OF NUCLEIC ACID DELIVERY REAGENT AND RELATED PRODUCT” (BEIJING BAISHIKANG PHARMACEUTICAL TECHNOLOGY (BSJPHARMA) …, priority 2021, published 2025):

System: C57BL/6 male mice
Experiment: In vivo delivery study of lipid nucleic acid mixture (oral gavage, RT-qPCR of PGY-sRNA-26 in tissues)
Design: species or system mouse
Settings: for oral delivery of single-stranded sRNA nucleic acids into mouse blood / oral delivery of single-stranded sRNA nucleic acids into mouse brain tissue / oral delivery of single-stranded sRNA nucleic acids into mouse femur / oral delivery of single-stranded sRNA nucleic acids into mouse heart tissue / oral delivery of single-stranded sRNA nucleic acids into mouse intestinal tissue / oral delivery of single-stranded sRNA nucleic acids into mouse kidney tissue / oral delivery of single-stranded sRNA nucleic acids into mouse liver tissue / oral delivery of single-stranded sRNA nucleic acids into mouse lung tissue / oral delivery of single-stranded sRNA nucleic acids into mouse pancreatic tissue / oral delivery of single-stranded sRNA nucleic acids into mouse spleen tissue / oral delivery of single-stranded sRNA nucleic acids into mouse stomach tissue: 100 μg lipid:10 nmol PGY-sRNA-26, sampled after 12 hours; for oral delivery of single-stranded sRNA nucleic acids into mouse heart tissue: vs free uptake group; for oral delivery of single-stranded sRNA nucleic acids into mouse intestinal tissue: intestine; for oral delivery of single-stranded sRNA nucleic acids into mouse pancreatic tissue: pancreas; for overall delivery efficacy: delivering nucleic acids into each tissue and blood tested: 100 μg lipid:10 nmol PGY-sRNA-26, all tissues and blood tested
Protocol: 10 nmol of small RNA (as shown in Table 2) was dissolved in 400 μl of DEPC-treated water in a glass tube, 10 μl of the corresponding lipid stock solution was added such that the lipid mass in the system was 100 μg. The mixture was mixed thoroughly, heated in a 90° C. water bath for 15 minutes, and then cooled naturally to obtain the lipid nucleic acid mixture of lipid and small RNA.
C57BL/6 male mice, approximately 6 weeks old, weighing […], were obtained from Beijing Vital River Laboratory Animal Technology Co., Ltd. The mice were housed in the SPF-grade animal facility at the Animal Center of the Institute of Basic Medical Sciences, Chinese Academy of Medical Sciences. The mice were fasted for 12 hours before gavage administration.
The lipid nucleic acid mixture was prepared following the method described in Example 2. The resultant lipid nucleic acid mixture was orally administered to each mouse at a dose of 100 μg lipid:10 nmol single-stranded 3-methylated small RNA PGY-sRNA-26.
• 1) Blank group (n=4): mice were administered with 500 μl saline by gavage, this group served as a blank control; • 2) Free uptake group (n=4): mice were directly administered with small RNA PGY-sRNA-26 solution (10 nmol/mouse, 500 l) by gavage, this group served as a negative control; • 3) Lipid-treated group (n=4): mice were administered with 500 μl lipid nucleic acid mixture prepared in step 2 by gavage.
After 12 hours of gavage administration, 500 μl blood from the eyeball of each mouse was sampled, added to 1.5 ml Trizol Reagent LS (purchased from Invitrogen), thoroughly mixed for lysis. 3 ml of Trizol Reagent LSwas added to tissue samples and homogenized for complete lysis, wherein the sampled tissues include heart, liver, spleen, lung, kidney, stomach, intestine, brain, blood, femur, pancreas. RNAwas extracted from 1 ml of the blood or the tissue lysate following the steps below: • Centrifuge at 4° C., 12,000 rpm for 5 min, discard the precipitate, transfer Trizol to a new centrifuge tube; • Add chloroform at 200 μL chloroform/mL Trizol, shake well, stand at room temperature for 5 min; • Centrifuge at 4° C., 12,000 rpm for 15 min; • Take the upper aqueous phase to another centrifuge tube, add isopropanol at 0.4 mL isopropanol/mL Trizol, mix well, and stand at low temperature for 10-20 min; • Centrifuge at 4° C., 12,000 rpm for 15 min, discard the supernatant, RNA precipitated at the bottom of the tube; • Add 1 mL of 75% ethanol, gently shake the centrifuge tube, suspend the precipitate; • Centrifuge at 4° C., 12,000 rpm for 15 min, discard the supernatant, add 1 mL of 75% ethanol, gently shake the centrifuge tube, suspend the precipitate; • Centrifuge at 4° C., 12,000 rpm for 15 min, discard the supernatant, air-dry at room temperature, dissolve RNA samples in 50 μL RNase-free H2O, measure OD value to quantify RNA concentration. 3.3 Reverse Transcription of sRNA to cDNA:
sRNA was reverse transcribed to cDNA using the High-Capacity cDNA Reverse Transcription Kit (Applied Biosystems, cat. no. 4368813) by stem-loop method (see, e.g., “Real-time quantification of microRNAs by stem-loop RT-PCR, Nucleic Acids Res. 2005 Nov. 27; 33(20):e179”, incorporated herein by reference). The reverse transcription system is as follows: Template RNA (200 ng/μL) 10 μL, 10×RT Buffer 2.0 μL, 25×dNTP Mix (100 mM) 0.8 μL, U6 RT stem-loop primer (10 μM) 2.0 μL, PGY-sRNA-26 RT stem-loop primer (10 μM) 2.0 μL, MultiScribe™ Reverse Transcriptase (50 U/μL) 1.0 μL, RNAse Inhibitor (40 U/μL) 1.0 μL, nuclease-free H2O 1.2 μL. After transient centrifugation, the reverse transcription system was placed in a PCR machine with the following reaction conditions: (1) 25° C., 10 min; (2) 37° C., 120 min; (3) 85° C., 5 min; (4) 4° C., stop reaction. After the reaction, add 20 μL RNAse-free ddH2O, adjust the final volume to 40 μL. […]

| Compound | oral delivery of single-stranded sRNA nucleic acids into mouse blood | oral delivery of single-stranded sRNA nucleic acids into mouse brain tissue | oral delivery of single-stranded sRNA nucleic acids into mouse femur | oral delivery of single-stranded sRNA nucleic acids into mouse heart tissue | oral delivery of single-stranded sRNA nucleic acids into mouse intestinal tissue | oral delivery of single-stranded sRNA nucleic acids into mouse kidney tissue | oral delivery of single-stranded sRNA nucleic acids into mouse liver tissue | oral delivery of single-stranded sRNA nucleic acids into mouse lung tissue | oral delivery of single-stranded sRNA nucleic acids into mouse pancreatic tissue | oral delivery of single-stranded sRNA nucleic acids into mouse spleen tissue | oral delivery of single-stranded sRNA nucleic acids into mouse stomach tissue | overall delivery efficacy: delivering nucleic acids into each tissue and blood tested |
| --- | --- | --- | --- | --- | --- | --- | --- | --- | --- | --- | --- | --- |
| CCCCCC/C=C\CCCCCCCC(=O)OCCCCCCCCCCCCCCCCCCCCCCCC [Lipid 819, tetracosyl (Z)-hexadec-9-enoate] | can effectively orally deliver | can effectively orally deliver | can effectively orally deliver | can effectively orally deliver | can effectively orally deliver | can effectively orally deliver | can effectively orally deliver | can effectively orally deliver | can effectively orally deliver | can effectively orally deliver | can effectively orally deliver |  |
| C=C(CC(=O)O)C(=O)O [Lipid 626, 2-methylidenebutanedioic acid] | can effectively orally deliver | can effectively orally deliver | can effectively orally deliver | can effectively orally deliver | can effectively orally deliver | can effectively orally deliver | can effectively orally deliver | can effectively orally deliver |  |  |  |  |
| CCCCCCCCCCCCCC=O [Lipid 594] | can effectively orally deliver | can effectively orally deliver | can effectively orally deliver | can effectively orally deliver | can effectively orally deliver | can effectively orally deliver | can effectively orally deliver | can effectively orally deliver |  | can effectively orally deliver | can effectively orally deliver | best delivery efficacy |
| O=C(O)CCCCCCCCCCCCCC(=O)O [Lipid 572, pentadecanedioic acid] | can effectively orally deliver | can effectively orally deliver | can effectively orally deliver | can effectively orally deliver | can effectively orally deliver | can effectively orally deliver | can effectively orally deliver |  |  | can effectively orally deliver | can effectively orally deliver |  |
| CCCCCCCCCC=O [Lipid 615] | can effectively orally deliver | can effectively orally deliver | can effectively orally deliver |  | can effectively orally deliver |  | can effectively orally deliver | can effectively orally deliver |  | can effectively orally deliver | can effectively orally deliver |  |
| C/C(=C\C(=O)O)C(=O)O [Lipid 606, (E)-2-methylbut-2-enedioic acid] | can effectively orally deliver |  | can effectively orally deliver |  |  |  | can effectively orally deliver |  |  |  |  |  |
| CCCCC/C=C\C/C=C\CCCCCCCCOC(=O)CCCCCCCCCCCCCCCCCCC [Lipid 812, [(9Z,12Z)-octadeca-9,12-dienyl] icosanoate] | can effectively orally deliver | can effectively orally deliver | can effectively orally deliver | can effectively orally deliver | can effectively orally deliver | can effectively orally deliver | can effectively orally deliver | can effectively orally deliver | can effectively orally deliver | can effectively orally deliver | can effectively orally deliver |  |
| CC1(O)CCOC(=O)C1 (stereo not drawn) [Lipid 603, 4-hydroxy-4-meth-yl-oxan-2-one] | can effectively orally deliver | can effectively orally deliver | can effectively orally deliver | can effectively orally deliver | can effectively orally deliver | can effectively orally deliver | can effectively orally deliver | can effectively orally deliver |  | can effectively orally deliver | can effectively orally deliver | best delivery efficacy |
